Results published in US12178791B2, “Haloallylamine sulfone derivative inhibitors of lysyl oxidases and uses thereof” (Syntara Limited, priority 2018, dated 2024).
Structures can show the parent of a compound that is named as a salt.

What was measured:
Format in all cases: biochemical
Bovine LOX = Bovine LOX (Bos taurus (Bovine), UniProt P33072); assay: LOX inhibition, Amplex Red oxidation assay; details: 30 min preincubation at 37 °C, putrescine substrate
Source text: Lysyl oxidase (LOX) is an extracellular copper dependent enzyme which oxidizes peptidyl lysine and hydroxylysine residues in collagen and lysine residues in elastin to produce peptidyl alpha-aminoadipic-delta-semialdehydes. […] There are five LOX family members; these are LOX, LOXL1, LOXL2, LOXL3 and LOXL4. LOX and LOXL family members can be acquired as recombinant active proteins from commercial sources, or extracted from animal tissues like bovine aorta, tendons, pig skin; or prepared from cell cultures. The inhibitory effects of the compounds of the present invention were tested against the given LOX-LOXL preparation using a method based on the detection of hydrogen peroxide with an Amplex Red oxidation assay (Zhou et al. A stable nonfluorescent derivative of resorufin for the fluorometric determination of trace hydrogen peroxide: applications in detecting the activity of phagocyte NADPH oxidase and other oxidases. Anal. Biochem. 1997; 253, 162-168). The assay was developed using either 384 or 96 well format. Briefly, in a standard black, clear bottom 384 well plate assay 25 μL of a dilution of any of the isoenzymes and orthologues in 1.2 M urea, 50 mM sodium borate buffer (pH 8.2) were added into each well in the presence of 1 μM mofegiline and 0.5 mM pargyline (to inhibit SSAO and MAO-B and MAO-A, respectively; not necessary if the enzyme is from a recombinant or purified form). […] Twenty five μL of a reaction mixture containing twice the KM concentration of putrescine (Sigma Aldrich, e.g. 20 mM for LOX, or 10 mM for LOXL2 and LOXL3), 120 μM Amplex Red (Sigma Aldrich) and 1.5 U/mL horseradish peroxidase (Sigma Aldrich) prepared in 1.2 M urea, 50 mM sodium borate buffer (pH 8.2) were then added to the corresponding wells. The above volumes were doubled in the case of 96 wells plate. The fluorescence (RFU) was read every 2.5 min for 30 min at […] 37° C., excitation 565 nm and emission 590 (Optima; BMG labtech). The slope of the kinetics for each well was calculated using MARS data analysis software (BMG labtech) and this value was used to deduce the IC50 value (Dotmatics).

LOXL2 = LOXL2 (Homo sapiens (Human), UniProt Q9Y4K0); assay: LOXL2 inhibition, Amplex Red oxidation assay; details: 30 min preincubation at 37 °C, putrescine substrate
Source text: Lysyl oxidase (LOX) is an extracellular copper dependent enzyme which oxidizes peptidyl lysine and hydroxylysine residues in collagen and lysine residues in elastin to produce peptidyl alpha-aminoadipic-delta-semialdehydes. […] There are five LOX family members; these are LOX, LOXL1, LOXL2, LOXL3 and LOXL4. LOX and LOXL family members can be acquired as recombinant active proteins from commercial sources, or extracted from animal tissues like bovine aorta, tendons, pig skin; or prepared from cell cultures. The inhibitory effects of the compounds of the present invention were tested against the given LOX-LOXL preparation using a method based on the detection of hydrogen peroxide with an Amplex Red oxidation assay (Zhou et al. A stable nonfluorescent derivative of resorufin for the fluorometric determination of trace hydrogen peroxide: applications in detecting the activity of phagocyte NADPH oxidase and other oxidases. Anal. Biochem. 1997; 253, 162-168). The assay was developed using either 384 or 96 well format. Briefly, in a standard black, clear bottom 384 well plate assay 25 μL of a dilution of any of the isoenzymes and orthologues in 1.2 M urea, 50 mM sodium borate buffer (pH 8.2) were added into each well in the presence of 1 μM mofegiline and 0.5 mM pargyline (to inhibit SSAO and MAO-B and MAO-A, respectively; not necessary if the enzyme is from a recombinant or purified form). Test compounds were dissolved in DMSO and tested in a Concentration Response Curve (CRC) with 11 data points, typically in the micromolar or nanomolar range after incubation with the enzyme for 30 min at 37° C. Twenty five μL of a reaction mixture containing twice the KM concentration of putrescine (Sigma Aldrich, e.g. 20 mM for LOX, or 10 mM for LOXL2 and LOXL3), 120 μM Amplex Red (Sigma Aldrich) and 1.5 U/mL horseradish peroxidase (Sigma Aldrich) prepared in 1.2 M urea, 50 mM sodium borate buffer (pH 8.2) were then added to the corresponding wells. The above volumes were doubled in the case of 96 wells plate. The fluorescence (RFU) was read every 2.5 min for 30 min at […] 37° C., excitation 565 nm and emission 590 (Optima; BMG labtech). The slope of the kinetics for each well was calculated using MARS data analysis software (BMG labtech) and this value was used to deduce the IC50 value (Dotmatics).

[1] = molecular target: Human recombinant SSAO/VAP-1 (Homo sapiens (Human), UniProt Q16853); assay: Inhibition of human recombinant SSAO/VAP-1; details: 30 min preincubation at 37 °C, benzylamine 600 μM; read-out: SSAO/VAP-1 Activity IC50
Experimental: Human recombinant SSAO/VAP-1 amine oxidase activity was determined using the coupled colorimetric method as described for monoamine oxidase, copper-containing amine oxidases and related enzymes (Holt A. and Palcic M., A peroxidase-coupled continuous absorbance plate-reader assay for flavin monoamine oxidases, copper-containing amine oxidases and related enzymes. Nat Protoc 2006; 1: 2498-2505). Briefly, a cloned cDNA template corresponding to residues 34-763 of human SSAO/VAP-1, and incorporating a mouse Ig kappa (κ) signal sequence, N-terminal flag epitope tag and tobacco etch virus (TEV) cleavage site, was assembled in a mammalian expression vector (pLO-CMV) by Geneart AG. This vector containing human SSAO/VAP-1 residues was transfected into CHO-Kl glycosylation mutant cell line, Lec 8. A clone stably expressing human SSAO/VAP-1 was isolated and cultured in large scale. Active human SSAO/VAP-1 was purified and recovered using immunoaffinity chromatography. This was used as the source for SSAO/VAP-1 activity. A high-throughput colorimetric assay was developed using either 96 or 384 well format. Briefly, in a standard 96 well plate assay 50 μL of purified human SSAO/VAP-1 (0.25 μg/mL) in 0.1 M sodium phosphate buffer (pH 7.4) was added into each well. Test compounds were dissolved in DMSO and tested in a Concentration Response Curve (CRC) with 4-11 data points, typically in the micromolar or nanomolar range after incubation with human SSAO/VAP-1 for 30 min at 37° C. After 30 min incubation, 50 μL of the reaction mixture containing 600 μM benzylamine (Sigma Aldrich), 120 μM Amplex Red (Sigma Aldrich) and 1.5 U/mL horseradish peroxidase (Sigma Aldrich) prepared in 0.1 M sodium phosphate buffer (pH 7.4) were added to the corresponding well. The fluorescence unit (RFU) was read every 2.5 min for 30 min at 37° C. excitation 565 nm and emission 590 (Optima; BMG labtech). The slope of the kinetics for each well was calculated using MARS data analysis software (BMG labtech) and this value was used to deduce the IC50 value (Dotmatics).

Human recombinant SSAO/VAP-1, sequence (Q16853 34-763): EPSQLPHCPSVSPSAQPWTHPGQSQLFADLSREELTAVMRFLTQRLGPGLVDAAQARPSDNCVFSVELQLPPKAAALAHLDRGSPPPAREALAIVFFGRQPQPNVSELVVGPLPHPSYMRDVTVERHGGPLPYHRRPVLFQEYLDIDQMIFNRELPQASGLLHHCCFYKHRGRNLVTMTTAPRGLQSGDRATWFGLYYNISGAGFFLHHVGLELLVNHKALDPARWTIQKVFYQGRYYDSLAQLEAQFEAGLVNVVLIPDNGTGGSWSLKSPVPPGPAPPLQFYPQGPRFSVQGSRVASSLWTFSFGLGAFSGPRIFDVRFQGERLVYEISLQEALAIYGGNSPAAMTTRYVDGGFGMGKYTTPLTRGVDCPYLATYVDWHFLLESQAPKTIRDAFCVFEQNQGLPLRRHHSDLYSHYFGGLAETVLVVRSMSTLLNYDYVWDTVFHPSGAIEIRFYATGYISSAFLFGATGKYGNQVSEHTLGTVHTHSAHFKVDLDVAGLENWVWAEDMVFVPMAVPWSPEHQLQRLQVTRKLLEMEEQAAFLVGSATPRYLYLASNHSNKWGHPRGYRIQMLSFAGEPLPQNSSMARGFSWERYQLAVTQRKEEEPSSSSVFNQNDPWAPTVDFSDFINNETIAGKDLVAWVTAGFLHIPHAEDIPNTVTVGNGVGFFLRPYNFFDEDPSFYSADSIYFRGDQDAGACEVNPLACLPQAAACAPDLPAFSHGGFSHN
Bovine LOX, sequence (P33072 170-418): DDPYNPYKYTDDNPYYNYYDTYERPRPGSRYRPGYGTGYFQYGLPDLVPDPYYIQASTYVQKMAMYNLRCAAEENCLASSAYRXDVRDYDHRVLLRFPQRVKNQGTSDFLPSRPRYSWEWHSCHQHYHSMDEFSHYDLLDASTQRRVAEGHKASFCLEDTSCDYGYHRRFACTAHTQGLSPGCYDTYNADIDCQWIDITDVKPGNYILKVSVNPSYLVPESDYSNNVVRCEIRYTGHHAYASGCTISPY
LOXL2, sequence (Q9Y4K0 26-774): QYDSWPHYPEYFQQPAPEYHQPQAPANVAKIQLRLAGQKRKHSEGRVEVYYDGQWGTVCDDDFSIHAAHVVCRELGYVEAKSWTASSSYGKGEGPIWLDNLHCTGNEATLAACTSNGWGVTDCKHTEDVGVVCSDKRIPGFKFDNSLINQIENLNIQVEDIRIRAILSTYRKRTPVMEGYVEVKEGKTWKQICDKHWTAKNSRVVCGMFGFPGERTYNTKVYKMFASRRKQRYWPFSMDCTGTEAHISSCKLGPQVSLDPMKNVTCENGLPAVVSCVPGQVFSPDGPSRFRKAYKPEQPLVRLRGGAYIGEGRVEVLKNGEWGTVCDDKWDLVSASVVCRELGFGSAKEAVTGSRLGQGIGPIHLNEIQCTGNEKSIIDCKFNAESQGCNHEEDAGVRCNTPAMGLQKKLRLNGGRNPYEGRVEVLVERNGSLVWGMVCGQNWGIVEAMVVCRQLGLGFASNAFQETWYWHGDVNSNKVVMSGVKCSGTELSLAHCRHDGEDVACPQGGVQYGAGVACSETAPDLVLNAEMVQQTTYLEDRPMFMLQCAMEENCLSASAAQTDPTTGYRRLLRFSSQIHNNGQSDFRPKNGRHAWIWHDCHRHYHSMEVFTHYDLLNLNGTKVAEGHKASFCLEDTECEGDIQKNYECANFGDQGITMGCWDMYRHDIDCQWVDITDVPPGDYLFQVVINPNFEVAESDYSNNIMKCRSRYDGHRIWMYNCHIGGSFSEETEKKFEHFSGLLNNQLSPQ

## NC/C=C(\F)CS(=O)(=O)c1ccccc1-c1ccccc1 [Compound 20, (Z)-4-(biphenyl-2-ylsulfonyl)-3-fluorobut-2-en-1-amine hydrochloride]
Bovine LOX
  IC50: < 10 µM
LOXL2
  IC50: < 1 µM

## CC(C)c1ccccc1S(=O)(=O)C/C(F)=C/CN [Compound 21, (Z)-3-fluoro-4-(2-isopropylphenylsulfonyl)but-2-en-1-amine hydrochloride]
Bovine LOX
  IC50: < 10 µM
LOXL2
  IC50: < 1 µM

## COc1ccccc1S(=O)(=O)C/C(F)=C/CN [Compound 22, (Z)-3-fluoro-4-(2-methoxyphenylsulfonyl)but-2-en-1-amine hydrochloride]
Bovine LOX
  IC50: < 10 µM
LOXL2
  IC50: < 1 µM

## NC/C=C(\F)CS(=O)(=O)c1cccc2ccccc12 [Compound 23, (Z)-3-fluoro-4-(naphthalen-1-ylsulfonyl)but-2-en-1-amine hydrochloride]
Bovine LOX
  IC50: < 10 µM
LOXL2
  IC50: < 1 µM
[1]
  IC50: > 30 µM

## NC/C=C(\F)CS(=O)(=O)c1ccc2ccccc2c1 [Compound 24, (Z)-3-fluoro-4-(naphthalen-2-ylsulfonyl)but-2-en-1-amine hydrochloride]
Bovine LOX
  IC50: < 10 µM
LOXL2
  IC50: < 1 µM

## NC/C=C(\F)CS(=O)(=O)c1ccc(Cl)cc1Cl [Compound 25, (Z)-4-(2,4-dichlorophenylsulfonyl)-3-fluorobut-2-en-1-amine hydrochloride]
Bovine LOX
  IC50: < 10 µM
LOXL2
  IC50: < 1 µM

## NC/C=C(\F)CS(=O)(=O)c1cccc(Cl)c1 [Compound 26, (Z)-4-(3-chlorophenylsulfonyl)-3-fluorobut-2-en-1-amine hydrochloride]
Bovine LOX
  IC50: < 10 µM
LOXL2
  IC50: < 1 µM

## NC/C=C(\F)CS(=O)(=O)c1ccc(Cl)cc1 [Compound 27, (Z)-4-(4-chlorophenylsulfonyl)-3-fluorobut-2-en-1-amine hydrochloride]
Bovine LOX
  IC50: < 10 µM
LOXL2
  IC50: < 1 µM

## NC/C=C(\F)CS(=O)(=O)c1cc(Cl)cc(Cl)c1 [Compound 28, (Z)-4-(3,5-dichlorophenylsulfonyl)-3-fluorobut-2-en-1-amine hydrochloride]
Bovine LOX
  IC50: < 10 µM
LOXL2
  IC50: < 1 µM
[1]
  IC50: > 30 µM

## CC(C)c1ccc(S(=O)(=O)C/C(F)=C/CN)nc1 [Compound 34, (Z)-3-fluoro-4-(5-isopropylpyridin-2-ylsulfonyl)but-2-en-1-amine dihydrochloride]
Bovine LOX
  IC50: < 10 µM
LOXL2
  IC50: < 1 µM

## Cc1ccc(S(=O)(=O)C/C(F)=C/CN)nc1 [Compound 35, (Z)-3-fluoro-4-(5-methylpyridin-2-ylsulfonyl)but-2-en-1-amine dihydrochloride]
Bovine LOX
  IC50: < 10 µM
LOXL2
  IC50: < 1 µM

## Cc1cccc(S(=O)(=O)C/C(F)=C/CN)n1 [Compound 36, (Z)-3-fluoro-4-(6-methylpyridin-2-ylsulfonyl)but-2-en-1-amine dihydrochloride]
Bovine LOX
  IC50: < 10 µM
LOXL2
  IC50: < 1 µM

## NC/C=C(\F)CS(=O)(=O)c1ccccc1F [Compound 37, (Z)-3-fluoro-4-(2-fluorophenylsulfonyl)but-2-en-1-amine hydrochloride]
Bovine LOX
  IC50: < 10 µM
LOXL2
  IC50: < 1 µM

## NC/C=C(\F)CS(=O)(=O)c1ccc(F)cc1 [Compound 39, (Z)-3-fluoro-4-(4-fluorophenylsulfonyl)but-2-en-1-amine hydrochloride]
Bovine LOX
  IC50: < 10 µM
LOXL2
  IC50: < 1 µM

## Cc1ccccc1S(=O)(=O)C/C(F)=C/CN [Compound 40, (Z)-3-fluoro-4-(o-tolylsulfonyl)but-2-en-1-amine hydrochloride]
Bovine LOX
  IC50: < 10 µM
LOXL2
  IC50: < 1 µM

## Cc1cccc(S(=O)(=O)C/C(F)=C/CN)c1 [Compound 41, (Z)-3-fluoro-4-(m-tolylsulfonyl)but-2-en-1-amine hydrochloride]
Bovine LOX
  IC50: < 10 µM
LOXL2
  IC50: < 1 µM

## Cc1ccc(S(=O)(=O)C/C(F)=C/CN)cc1 [Compound 42, (Z)-3-fluoro-4-(p-tolylsulfonyl)but-2-en-1-amine hydrochloride]
Bovine LOX
  IC50: < 10 µM
LOXL2
  IC50: < 1 µM

## Cc1cccnc1S(=O)(=O)C/C(F)=C/CN [Compound 43, (Z)-3-fluoro-4-(3-methylpyridin-2-ylsulfonyl)but-2-en-1-amine dihydrochloride]
Bovine LOX
  IC50: < 10 µM
LOXL2
  IC50: < 1 µM

## Cc1cc(S(=O)(=O)C/C(F)=C/CN)ccn1 [Compound 44, (Z)-3-fluoro-4-(2-methylpyridin-4-ylsulfonyl)but-2-en-1-amine dihydrochloride]
Bovine LOX
  IC50: < 10 µM
LOXL2
  IC50: < 1 µM

## Cc1ncccc1S(=O)(=O)C/C(F)=C/CN [Compound 47, (Z)-3-fluoro-4-(2-methylpyridin-3-ylsulfonyl)but-2-en-1-amine dihydrochloride]
Bovine LOX
  IC50: < 10 µM
LOXL2
  IC50: < 1 µM

## Cc1ccncc1S(=O)(=O)C/C(F)=C/CN [Compound 48, (Z)-3-fluoro-4-(4-methylpyridin-3-ylsulfonyl)but-2-en-1-amine dihydrochloride]
Bovine LOX
  IC50: < 10 µM
LOXL2
  IC50: < 1 µM

## CC(C)c1ccc(S(=O)(=O)C/C(F)=C/CN)cn1 [Compound 49, (Z)-3-fluoro-4-(6-isopropylpyridin-3-ylsulfonyl)but-2-en-1-amine dihydrochloride]
Bovine LOX
  IC50: < 10 µM
LOXL2
  IC50: < 1 µM

## Cc1[nH]c2c(S(=O)(=O)C/C(F)=C/CN)cccc2c1C [Compound 52, (Z)-4-((2,3-dimethyl-1H-indol-7-yl)sulfonyl)-3-fluorobut-2-en-1-amine hydrochloride]
Bovine LOX
  IC50: < 10 µM
LOXL2
  IC50: < 1 µM

## [2H]c1nc2c(S(=O)(=O)C/C(F)=C/CN)c([2H])c([2H])c([2H])c2c([2H])c1[2H] [Compound 53, (Z)-3-fluoro-4-((quinolin-8-yl-d6)sulfonyl)but-2-en-1-amine dihydrochloride]
[1]
  IC50: > 30 µM
